Tests used:
[1] = pKa of nanoparticle compositions; assay type: physicochemical; conditions: Table 1; rows without footnote mark
[2] = Particle size and polydispersity index of nanoparticle compositions (Zetasizer Nano ZS); assay type: physicochemical; conditions: for PDI / Size (nm): Table 1; for PDI: rows without footnote mark; for Size (nm): rows without footnote mark (lipid:DOPE:cholesterol:PEG-DMG 40:20:38.5:1.5, Luc mRNA; MC3 standard formulation)
Summary of the method: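 Measured in 1×PBS by Zetasizer Nano ZS.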

[3] = tested on: modified luciferase expression; test: Expression of Luc in different organs (liver, lung, spleen, femur) 6 hours after intravenous administration; assay type: in vivo; conditions: Table 3, mice, i.v., 0.5 mpk
Experimental: The efficacy of the nanoparticle compositions presented in Tables 1, 1a, 17-1, 19-1, 20-1 and 21-1 was further evaluated by measuring the expression of modified luciferase in the liver, lung, spleen, and femur upon administration of a given composition. Formulations were administered intravenously to mice (n=3) at a dosage of 0.5 mpk and bioluminescence measured after 6 hours. The standard MC3 formulation and a PBS control were also tested.

[4] = tested on: luciferase (Luc) mRNA expression; test: Expression of Luc induced by sample formulations, whole-body bioluminescence after intravenous administration; assay type: in vivo; conditions: Table 2; mice, i.v., 0.5 mg/kg, 6 hours
Summary of the method: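 Read-out is whole-body bioluminescence at 3, 6 and 24 h after a single intravenous dose of 0.5 mg/kg Luc mRNA in nanoparticle formulations. Groups of n=6 mice; PBS and standard MC3 formulation as references.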

[5] = Lipid levels in liver and spleen 48 hours after administration; assay type: in vivo, rats; conditions: rat liver, 48 h
Experimental: Formulations were administered intravenously to rats (n=3 or 6) at a dosage of 0.2 mg/kg or 0.5 mg/kg (mpk) and hEPO levels measured at 3, 6, and 24 hour time points. After the 48 hour time point, livers and spleens were harvested and frozen.
The amount of lipid in the liver and spleen 48 hours after administration of a nanoparticle composition was also measured. […] In contrast, approximately 60% of doses including MC3 or Compound 22 remained in the liver after 48 hours. Less than 3% of the dose remained in the spleen for each composition tested.

[6] = Lipid clearance: % dose remaining in mouse liver 6 h and 24 h after administration of nanoparticle compositions; assay type: in vivo, CD-1 mice
Source text: In contrast, hEPO expression in rats induced by administration of a nanoparticle composition including a compound according to one of formulae (I), (Ia1)-(Ia6), (Ib), (II), (IIa), (III), and (IIIa) was substantially […] than that measured for MC3. […] Table 7c and 7d show additional protein expressions and clearance data from compositions with various compounds disclosed herein as compared to with MC3.

[7] = tested on: hEPO mRNA expression; test: Expression of hEPO in rats after intravenous administration; assay type: in vivo; conditions: hEPO expression in S.D. rats; for AUC/MC3 0.1 mpk / AUC/MC3 1 mpk: relative to MC3
Experimental: PBS (phosphate buffered saline) is used as control.
Formulations were prepared according to Table 5 and included mRNA encoding hEPO.
[…] After the 48 hour time point, livers and spleens were harvested and frozen.

[8] = Encapsulation efficiency of RNA (QUANT-IT RIBOGREEN RNA assay); assay type: physicochemical; conditions: Table 1; rows without footnote mark
Summary of the method: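 RiboGreen fluorescence (ex ~480, em ~520 nm) measured after 15 min at 37 °C on samples at ~5 μg/mL in TE, pH 7.5, ± 2% Triton X-100 solution. After blank subtraction, free RNA is given as intact-sample signal divided by disrupted-sample signal.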

SMILES | pKa [1] | PDI [2] | Size (nm) [2] [nm] | Total Flux Liver [3] | Total Flux Spleen [3] | Total Flux 6 hours [4] | % dose remainng Rat liver (48 h) [5] [%] | % Dose remaining 6 h CD-1 mice [6] [%] | % Dose remaining 24 h CD-1 mice [6] [%] | % dose remaining Mouse liver (24 h) [6] [%] | AUC (0.1 mpk) [7] | AUC/MC3 0.1 mpk [7] | AUC (1 mpk) [7] | AUC/MC3 1 mpk [7] | EE (%) [8] [%] | particle size, rank within the named table (in words) ([2]; comparison amongst compositions)
CCCCCCCCCN(CCCCCCCCC)CCN(CCCCCCCCC)CC(=O)N1CCN(C(=O)CN(CCCCCCCCC)CCCC(=O)OCCCCC)CC1 [Compound 45, Pentyl 4-((2-(4-(N-(2-(dinonylamino)ethyl)-N-nonylglycyl)piperazin-1-yl)-2-oxoethyl)(nonyl)amino)butanoate] | 6.77 | 0.200 | 100.2 | 7.87E+09 | 1.70E+08 | 7.86E+10 | 8.57 | 33 | 24 | 23.7 | 1.45E+06 | 0.90 | 2.00E+08 | 1.7 | 94.9 | –
CCCCCCCCCN(CCCCCCCC(=O)OC)CCN(CCCCCCCCC)CC(=O)N1CCN(C(=O)CN(CCCCCCCCC)CCCCCCCCC)CC1 [Compound 46, Methyl 8-((2-((2-(4-(dinonylglycyl)piperazin-1-yl)-2-oxoethyl)(nonyl)amino)ethyl)(nonyl)amino)octanoate] | 6.77 | 0.160 | 81.8 | 3.84E+08 | 4.35E+07 | 5.26E+09 | – | 1 | <1 | – | – | – | – | – | 97.5 | –
CCCCCCCCCN(CCCCCCCCC)CCN(CCCCCCCC(=O)OC)CC(=O)N1CCN(C(=O)CN(CCCCCCCCC)CCCCCCCCC)CC1 [Compound 47, Methyl 8-((2-(dinonylamino)ethyl)(2-(4-(dinonylglycyl)piperazin-1-yl)-2-oxoethyl)amino)octanoate] | 6.82 | 0.180 | 89.8 | 4.95E+08 | 1.42E+08 | 2.64E+09 | – | 1 | <1 | – | – | – | – | – | 53.1 | –
CCCCCCCCCN(CCCCCCCC(=O)OC)CCN(CCCCCCCC(=O)OC)CC(=O)N1CCN(C(=O)CN(CCCCCCCCC)CCCCCCCCC)CC1 [Compound 48, Methyl 8-((2-(4-(dinonylglycyl)piperazin-1-yl)-2-oxoethyl)(2-((8-methoxy-8-oxooctyl)(nonyl)amino)ethyl)amino)octanoate] | 6.99 | 0.099 | 111.4 | 1.04E+07 | 1.50E+07 | 1.05E+08 | – | <1 | <1 | – | – | – | – | – | 79.3 | –
CCCCCCCCCN(CCCCCCCCC)CCC1CCN(C(=O)CN(CCCCCCCCC)CCN(CCCCCCCCC)CCCCCCCCC)CC1 [Compound 49, 2-((2-(Dinonylamino)ethyl)(nonyl)amino)-1-(4-(2-(dinonylamino)ethyl)piperidin-1-yl)ethan-1-one] | 6.4 | 0.200 | 95.8 | 1.21E+10 | 6.65E+07 | 5.67E+10 | 38.45 | 49 | 40 | 40.3 | 5.98E+06 | 3.7 | 1.44E+08 | 1.2 | 98.8 | –
CCCCCCCCCN(CCCCCCCCC)CCN(CCCCCCCCC)CCC1CCN(C(=O)CN(CCCCCCCCC)CCCCCCCCC)CC1 [Compound 50, 2-(Dinonylamino)-1-(4-(2-((2-(dinonylamino)ethyl)(nonyl)amino)ethyl)piperidin-1-yl)ethan-1-one] | 5.55 | 0.190 | 65.6 | 2.14E+07 | 1.94E+05 | 1.48E+08 | – | 56 | 47 | – | – | – | – | – | 98.7 | smallest particles
CCCCCCCCCCCCCCN(CCCCCCCCCCCCCC)CC(=O)N1CCN(C(=O)CN(CCCCCCCCC)CCN(CCCCCCCCC)CCCCCCCCC)CC1 [Compound 51, 2-((2-(Dinonylamino)ethyl)(nonyl)amino)-1-(4-(ditetradecylglycyl)piperazin-1-yl)ethan-1-one] | 6.44 | 0.190 | 76.6 | 3.55E+09 | 2.24E+07 | 6.70E+10 | – | 54 | 41 | – | – | – | – | – | 98.4 | –
CCCCCCCCCN(CCCCCCCCC)CCC(=O)N1CCN(C(=O)CCN(CCCCCCCCC)CCN(CCCCCCCCC)CCCCCCCCC)CC1 [Compound 52, 3-(Dinonylamino)-1-(4-(3-((2-(dinonylamino)ethyl)(nonyl)amino)propanoyl)piperazin-1-yl)propan-1-one] | 6.77 | 0.100 | 94.4 | 1.18E+10 | 8.74E+08 | 9.85E+10 | – | 46 | 40 | – | – | – | – | – | 97.5 | –

Source: patent US10195156B2, “Compounds and compositions for intracellular delivery of agents” (ModernaTX, Inc., priority 2015, dated 2019)
